In ChEMBL document CHEMBL2440076, “New triarylpyrazoles as broad-spectrum anticancer agents: design, synthesis, and biological evaluation” (Eur J Med Chem, 2013):

Experiments:
Type in all cases: functional
[1] = tested on: Malme-3M; experiment: Growth inhibition of human MALME-3M cells assessed as cell growth at 5X10'-5 M after 48 hrs by sulforhodamine B assay; details: read-out: Activity
[2] = tested on: SNB-19; experiment: Growth inhibition of human SNB19 cells assessed as cell growth at 5X10'-5 M after 48 hrs by sulforhodamine B assay; details: SNB-19, 48 h, read-out: Activity
[3] = tested on: SF-539; experiment: Growth inhibition of human SF539 cells assessed as cell growth at 5X10'-5 M after 48 hrs by sulforhodamine B assay; details: SF-539, 48 h, read-out: Activity
[4] = tested on: SF-295; experiment: Growth inhibition of human SF295 cells assessed as cell growth at 5X10'-5 M after 48 hrs by sulforhodamine B assay; details: SF-295, 48 h, read-out: Activity
[5] = tested on: HCT-15; experiment: Growth inhibition of human HCT15 cells assessed as cell growth at 5X10'-5 M after 48 hrs by sulforhodamine B assay; details: HCT-15, 48 h, read-out: Activity
[6] = tested on: COLO 205; experiment: Growth inhibition of human COLO205 cells assessed as cell growth at 5X10'-5 M after 48 hrs by sulforhodamine B assay; details: COLO 205, 48 h, read-out: Activity
[7] = tested on: RPMI-8226; experiment: Growth inhibition of human RPMI8226 cells assessed as cell growth at 5X10'-5 M after 48 hrs by sulforhodamine B assay; details: RPMI-8226, 48 h, read-out: Activity
[8] = tested on: K562; experiment: Growth inhibition of human K562 cells assessed as cell growth at 5X10'-5 M after 48 hrs by sulforhodamine B assay; details: K562, 48 h, read-out: Activity
[9] = tested on: CAKI-1; experiment: Growth inhibition of human CAKI-1 cells assessed as cell growth at 5X10'-6 M after 48 hrs by sulforhodamine B assay; details: CAKI-1, 48 h, read-out: Activity
[10] = tested on: COLO 205; experiment: Growth inhibition of human COLO205 cells assessed as cell growth at 5X10'-9 M after 48 hrs by sulforhodamine B assay; details: COLO 205, 48 h, read-out: Activity
[11] = tested on: RPMI-8226; experiment: Growth inhibition of human RPMI8226 cells assessed as cell growth at 5X10'-9 M after 48 hrs by sulforhodamine B assay; details: RPMI-8226, 48 h, read-out: Activity
[12] = tested on: HT-29; experiment: Growth inhibition of human HT-29 cells assessed as cell growth at 5X10'-6 M after 48 hrs by sulforhodamine B assay; details: HT-29, 48 h, read-out: Activity
[13] = tested on: RPMI-8226; experiment: Growth inhibition of human RPMI8226 cells assessed as cell growth at 5X10'-6 M after 48 hrs by sulforhodamine B assay; details: RPMI-8226, 48 h, read-out: Activity
[14] = tested on: CAKI-1; experiment: Growth inhibition of human CAKI-1 cells assessed as cell growth at 5X10'-7 M after 48 hrs by sulforhodamine B assay; details: CAKI-1, 48 h, read-out: Activity
[15] = tested on: MDA-MB-435; experiment: Growth inhibition of human MDA-MB-435 cells assessed as cell growth at 5X10'-7 M after 48 hrs by sulforhodamine B assay; details: MDA-MB-435, 48 h, read-out: Activity
[16] = tested on: KM12; experiment: Growth inhibition of human KM12 cells assessed as cell growth at 5X10'-7 M after 48 hrs by sulforhodamine B assay; details: KM12, 48 h, read-out: Activity
[17] = tested on: HCT-15; experiment: Growth inhibition of human HCT15 cells assessed as cell growth at 5X10'-7 M after 48 hrs by sulforhodamine B assay; details: HCT-15, 48 h, read-out: Activity
[18] = tested on: COLO 205; experiment: Growth inhibition of human COLO205 cells assessed as cell growth at 5X10'-7 M after 48 hrs by sulforhodamine B assay; details: COLO 205, 48 h, read-out: Activity
[19] = tested on: NCI-H226; experiment: Growth inhibition of human NCI-H226 cells assessed as cell growth at 5X10'-7 M after 48 hrs by sulforhodamine B assay; details: NCI-H226, 48 h, read-out: Activity
[20] = tested on: RPMI-8226; experiment: Growth inhibition of human RPMI8226 cells assessed as cell growth at 5X10'-7 M after 48 hrs by sulforhodamine B assay; details: RPMI-8226, 48 h, read-out: Activity
[21] = tested on: K562; experiment: Growth inhibition of human K562 cells assessed as cell growth at 5X10'-7 M after 48 hrs by sulforhodamine B assay; details: K562, 48 h, read-out: Activity
[22] = tested on: OVCAR-3; experiment: Growth inhibition of human OVCAR3 cells assessed as cell growth at 5X10'-8 M after 48 hrs by sulforhodamine B assay; details: OVCAR-3, 48 h, read-out: Activity
[23] = tested on: IGROV-1; experiment: Growth inhibition of human IGROV1 cells assessed as cell growth at 5X10'-8 M after 48 hrs by sulforhodamine B assay; details: IGROV-1, 48 h, read-out: Activity
[24] = tested on: UACC-257; experiment: Growth inhibition of human UACC257 cells assessed as cell growth at 5X10'-8 M after 48 hrs by sulforhodamine B assay; details: UACC-257, 48 h, read-out: Activity
[25] = tested on: SNB-19; experiment: Growth inhibition of human SNB19 cells assessed as cell growth at 5X10'-8 M after 48 hrs by sulforhodamine B assay; details: SNB-19, 48 h, read-out: Activity
[26] = tested on: SF-539; experiment: Growth inhibition of human SF539 cells assessed as cell growth at 5X10'-8 M after 48 hrs by sulforhodamine B assay; details: SF-539, 48 h, read-out: Activity
[27] = tested on: SW-620; experiment: Growth inhibition of human SW620 cells assessed as cell growth at 5X10'-8 M after 48 hrs by sulforhodamine B assay; details: SW-620, 48 h, read-out: Activity
[28] = tested on: MCF7; experiment: Growth inhibition of human MCF7 cells assessed as cell growth at 5X10'-5 M after 48 hrs by sulforhodamine B assay; details: MCF7, 48 h, read-out: Activity
[29] = tested on: RXF 393; experiment: Growth inhibition of human RXF393 cells assessed as cell growth at 5X10'-5 M after 48 hrs by sulforhodamine B assay; details: RXF 393, 48 h, read-out: Activity
[30] = tested on: UACC-257; experiment: Growth inhibition of human UACC257 cells assessed as cell growth at 5X10'-5 M after 48 hrs by sulforhodamine B assay; details: UACC-257, 48 h, read-out: Activity
[31] = tested on: COLO 205; experiment: Growth inhibition of human COLO205 cells assessed as cell growth at 5X10'-8 M after 48 hrs by sulforhodamine B assay; details: COLO 205, 48 h, read-out: Activity
[32] = tested on: MOLT-4; experiment: Growth inhibition of human MOLT4 cells assessed as cell growth at 5X10'-8 M after 48 hrs by sulforhodamine B assay; details: MOLT-4, 48 h, read-out: Activity
[33] = tested on: K562; experiment: Growth inhibition of human K562 cells assessed as cell growth at 5X10'-8 M after 48 hrs by sulforhodamine B assay; details: K562, 48 h, read-out: Activity
[34] = tested on: CCRF-CEM; experiment: Growth inhibition of human CCRF-CEM cells assessed as cell growth at 5X10'-8 M after 48 hrs by sulforhodamine B assay; details: read-out: Activity
[35] = tested on: SK-OV-3; experiment: Growth inhibition of human SKOV3 cells assessed as cell growth at 5X10'-9 M after 48 hrs by sulforhodamine B assay; details: SK-OV-3, 48 h, read-out: Activity
[36] = tested on: 786-0; experiment: Growth inhibition of human 786-0 cells assessed as cell growth at 5X10'-9 M after 48 hrs by sulforhodamine B assay; details: 786-0, 48 h, read-out: Activity
[37] = tested on: IGROV-1; experiment: Growth inhibition of human IGROV1 cells assessed as cell growth at 5X10'-9 M after 48 hrs by sulforhodamine B assay; details: IGROV-1, 48 h, read-out: Activity
[38] = tested on: Malme-3M; experiment: Growth inhibition of human MALME-3M cells assessed as cell growth at 5X10'-9 M after 48 hrs by sulforhodamine B assay; details: read-out: Activity

With `COc1cc(-c2nn(-c3cccc(NC(=O)Nc4ccc(Cl)c(Cl)c4)c3)cc2-c2ccncc2)ccc1Cl` the growth at 50 µM [1] was -43%, the growth at 50 µM [2] was 15% and the growth at 50 µM [3] was -37%. The growth at 50 µM [4] was -42%, the growth at 50 µM [5] was 5% and the growth at 50 µM [6] was -94%. It also gave a growth at 50 µM [7] of -11%, a growth at 50 µM [8] of 3% and a growth at 5 µM [9] of -13%. It also gave a growth at 0.005 µM [10] of 109%, a growth at 0.005 µM [11] of 96% and a growth at 5 µM [12] of 2%. The growth at 5 µM [13] was -10%, the growth at 0.5 µM [14] was 84% and the growth at 0.5 µM [15] was 84%. The growth at 0.5 µM [16] was 70%, the growth at 0.5 µM [17] was 76% and the growth at 0.5 µM [18] was 102%. The growth at 0.5 µM [19] was 82%, the growth at 0.5 µM [20] was 45% and the growth at 0.5 µM [21] was 65%. For the same compound, the growth at 0.05 µM [22] was 111%, the growth at 0.05 µM [23] was 103% and the growth at 0.05 µM [24] was 88%. For the same compound, the growth at 0.05 µM [25] was 95%, the growth at 0.05 µM [26] was 85% and the growth at 0.05 µM [27] was 102%. It also gave a growth at 50 µM [28] of 3%, a growth at 50 µM [29] of -43% and a growth at 50 µM [30] of -30%. The growth at 0.05 µM [31] was 112%, the growth at 0.05 µM [32] was 113% and the growth at 0.05 µM [33] was 103%. The growth at 0.05 µM [34] was 98%, the growth at 0.005 µM [35] was 104% and the growth at 0.005 µM [36] was 100%. It also gave a growth at 0.005 µM [37] of 97% and a growth at 0.005 µM [38] of 103%.
